According to patent publication US10004761B2, “Malodor neutralizing composition” (priority 2016, dated 2018):

How the values were obtained:
[1] = HA gelation consistency (Method III) with inhibitors, no Hyase; assay type: physicochemical; details: for Consistency: Table 8: HA 1% 2cc + 20 μL inhibitor stock
Procedure: Method III (Viscosity of HA): HA at low concentrations (e.g., 1%) in aqueous solution forms a viscous colloidal hydrogel solution, which yields semi-solid gel particles at room temperature and a solid gel at 4° C.
HA degradation was evaluated using Method III, as described hereinabove.
HA Gelation in the presence of Hyase Inhibitors, without Hyase was studied while using the following Stock solutions:
To each tube containing 2 mL of 1% HA one of the following inhibitors: SCG, Tranilast, and Glutathione (100 μL of each), and NAC (50 μL) was added. […] No Hyase was present.
Using the same protocols as above, HA degradation was tested following incubation of HA (2 ml of a 1% Stock solution) and a Hyase inhibitor (20 μL of a stock solution as described hereinabove), at 37° C., in the presence and absence of Hyase.

[2] = tested on: hyaluronidase Type IV-S, from bovine testes (Hyase); assay: Dische's assay (Method II) of HA degradation by Hyase with inhibitors; assay type: biochemical; details: for % HA degraded: 20 μL inhibitor stock incubated 2 h with 20 μL Hyase, then HA 200 μL; for % HA degraded / % HA intact (precipitated): room temperature 24 h; for % of inhibition of HA degradation: derived from Table 1; for % HA intact (precipitated): represents % of Hyase inhibition, 20 μL inhibitor, 20 μL Hyase, HA 200 μL
Procedure: Method II (Dische's assay; detection of uronic acid residues): Assays were performed by following the procedures described in Dische Z. [J. Biol. Chem., 1947, 167, p. 189-198] and Dische and Rothschild [Anal Biochem., 1967, 21(1), p. 125-30]. In these assays, molecules containing the uronic acid residues found in the precipitate formed upon CPC additions, are re-solubilized and products formed by -sulfuric acid hydrolysis of these fragments are detected by a spectrophotometric assay employing carbazole chromagen reagent. In addition, small residues degraded off the HA chains that have not precipitated with the addition of CPC, can be detected by the carbazole assay performed on the solution, so as to detect all of the uronic acid content.
Evaluation of HA degradation by this method was generally performed as follows:
20 μL of a NAC stock solution, and 20 μL of the stock solutions of the other inhibitors were used in the assay.
200 μL of the HA stock solution were placed in each tube, for achieving a 1 mg HA per tube.
Twenty (20) μL of hyase and 20 μL of NAC were combined and incubated for 2 hours. Then 200 μL of HA (1 mg) were added to each tube and the mixture was incubated at room temperature for 24 hours. Thereafter, the tubes were heated for 2 minutes in boiling water bath and 8 mL of doubled distilled water were added to the tubes as preparation for the Dische's assay.
As per Dische's Assay, 100 μL of 3N NaCl and 0.5 mL of 10% CPC (cetylpyridinium chloride) were thereafter added to each tube and the mixture was incubated at 37° C. until flocculation-turbidity (resulting from precipitation of HA+CPC) could be observed. The mixture was centrifuged for 10 minutes at 10,000 g at room temperature, and the supernatant was thereafter separated from the obtained pellet.
The pellet was dissolved in 1 ml of CaCl2, and the obtained solution was incubated at 37° C. until complete dissolution of the pellet is obtained. A 2:1 v/v ethanol/ether mixture (8 ml) was thereafter added, and the mixture was intensively stirred (by vortex) and kept at −20° C. overnight. The obtained pellet was collected following a centrifugation for 10 minutes at 10,000 g. Then, distilled water (1 mL) was added to solubilize the pellet, followed by addition of 0.2 ml Carbazole 1%. The mixture was stirred thoroughly, and concentrated sulfuric acid (6 mL) was thereafter added.
The samples were transferred into tight closed tubes, placed for 10 minutes in a boiling water bath, and was thereafter cooled in ice until it reached room temperature.
The pink-violet color developed by the chromogen was measured using a spectrophotometer at 527 nm.
Ditch assay, as described hereinabove (Method II) was performed while using the following Hyase inhibitors:
The experiment was run at room temperature (23° C.). Hyase and Inhibitors were incubated first for 2 hours prior to the addition of HA. Blank tubes included no substrate (HA) and Control tubes included no enzyme, no inhibitor and HA (200 μL). Tubes 5 and 6 contained HA and Hyase with no inhibitor. Standard Solutions with no enzyme and no inhibitor and HA 50 μL and 10 μL were also tested, for calibration. % HA cleaved denotes the weight percent of HA that was degraded. % HA residue denotes the weight percent of non-degraded HA, and represents the % of Hyase inhibition.

[3] = TMA malodor neutralization by myrac aldehyde, evaluated by smelling
Procedure: The experimental system for following the neutralization of an exemplary malodorous compound trimethylamine (TMA) by an exemplary malodor neutralizing agent aldehyde myrac aldehyde, was based on assaying the CHO functional group using the Park-Johnson method [Park, J. T. and Johnson, M. J., J. Biol. Chem., 1949, 181, p. 149]. TMA levels were analyzed using Siemens Multistix 10 SG reagent strips.
Determination of the concentration of myrac aldehyde needed to neutralize TMA malodor was evaluated by smelling 2 ml samples of an aqueous solution containing 2 mM TMA (4 micromole of TMA in 2 ml of water). […]

Row | % HA degraded [2] [%] | % of inhibition of HA degradation [2] [%] | % HA intact (precipitated) [2] [%] | HA gel consistency ([1]; 2 mL 1% HA + inhibitor stock (100 μL; NAC 50 μL), 37° C. 24 hours) | SMILES | Consistency ([1]; at 4° C.) | Consistency ([1]; at 37° C.) | concentration from which the scent of myrac aldehyde is perceived and masks the smell of TMA ([3]; 2 mM TMA in water) [%] | concentration of myrac aldehyde that can neutralize the smell of TMA ([3]; 2 mM TMA in water) | Perceived scent ([3]; Sample 1: 2 μl aldehyde in 2 ml TMA 2 mM solution, 0.1 percent aldehyde) | Perceived scent ([3]; Sample 2: 10 μl aldehyde in 2 ml TMA 2 mM solution, 0.5 percent aldehyde) | Perceived scent ([3]; Sample 3: 20 μl aldehyde in 2 ml TMA 2 mM solution, 1 percent aldehyde) | Perceived scent ([3]; Sample 4: 40 μl aldehyde in 2 ml TMA 2 mM solution, 2 percent aldehyde) | Perceived scent ([3]; Sample 5: 80 μl aldehyde in 2 ml TMA 2 mM solution, 4 percent aldehyde) | Perceived scent ([3]; Sample 6: 100 μl aldehyde in 2 ml TMA 2 mM solution, 5 percent aldehyde) | Perceived scent ([3]; Sample 7: 200 μl aldehyde in 2 ml TMA 2 mM solution, 10 percent aldehyde) | Perceived scent ([3]; Sample 8: 300 μl aldehyde in 2 ml TMA 2 mM solution, 15 percent aldehyde) | Perceived scent ([3]; Sample 9: 400 μl aldehyde in 2 ml TMA 2 mM solution, 20 percent aldehyde)
1 | 96.7 | 3.3 | 3.3 |  | O=C(O)c1cc(=O)c2c(OCC(O)COc3cccc4oc(C(=O)O)cc(=O)c34)cccc2o1 [Cromoglycate, sodium Cromoglycate] | Solid (for a solid the results were in the range of 80-100 Pa S and higher) | Semisolid (for a semi-solid in the range of 50-70 Pa S) |  |  |  |  |  |  |  |  |  |  | 
2 | 82 | 18 | 18 | viscous liquid | N[C@@H](CCC(=O)N[C@@H](CS)C(=O)NCC(=O)O)C(=O)O [Glutathione, Reduced Glutathione] | Solid (for a solid the results were in the range of 80-100 Pa S and higher) | Viscous liquid (for a viscous liquid in the range of 1-10 Pa S) |  |  |  |  |  |  |  |  |  |  | 
3 |  |  |  |  | CC(C)=CCCC1=CCC(C=O)CC1 (stereo not shown) [myrac aldehyde, 4-(4-methylpent-3-enyl)cyclohex-3-ene-1-carbaldehyde] |  |  | ≥ 4 | about 2% | Strong fishy | fishy | Faint fishy | No scent | Faint myrac | Myrac | Myrac | Strong Myrac | Strong myrac
